Laboratory results: patent publication US6906205B2, “Spiro and dispiro 1,2,4-trioxolane antimalarials” (Medicines for Malaria Venture MMV, priority 2002, dated 2005)
Values after ≈ are worked out from the molar mass of the structure shown.

Tests used:
[1] = type: physicochemical
Description: It is presumed that thermal decomposition of these trioxolanes was initiated by formation of a 1,5 diradical produced by homolytic cleavage of the peroxide bond of the trioxolane ring.

[2] = tested on: P. falciparum K1 strain (Thailand resistant to chloroquine); test: semiautomated microdilution assay, [3H]-hypoxanthine incorporation, K1 strain; type: cell-based, Plasmodium falciparum; conditions: Plasmodium falciparum; K1 strain, 72 h incubation; read-out: IC50 (ng/ml) K1
Procedure, shortened: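 Asynchronous stock cultures → intraerythrocytic forms; semiautomated microdilution; IC50 by logit regression.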

[3] = tested on: ANKA strain of P. berghei; test: single dose STI in vivo screen in infected mice; set-up: species or system Plasmodium berghei
Procedure, shortened: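 Groups of 3-5 Moro SPF or NMRI mice infected with the ANKA strain of P. berghei received a single dose of trioxolane on day one post-infection. The compound was given in 3% ethanol and 7% Tween 80 or in SSV (0.5% w/v CMC, 0.5% v/v benzyl alcohol, 0.4% v/v Tween 80, 0.9% w/v sodium chloride in water). Antimalarial activity was scored as percent reduction in parasitemia on day three and as survival time versus untreated controls. Survival to day 30 counted as cure.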

[4] = tested on: Schistosoma mansoni adult schistosomes (49-day-old); test: effect on adult schistosomes (49-day-old) in mice; type: in vivo
Experimental: Mice were infected with 100 Schistosoma mansoni cercariae […]. Each group was treated per os with OZ compounds at single doses of 200, 400, and 600 mg/kg. […] All groups were killed 4 weeks after treatment and the liver and intestine were removed and separated. The liver and intestine were compressed and alive male and female worms could be seen and counted.

[5] = tested on: ANKA strain of Plasmodium berghei; test: single dose ED50/ED90/ED99 determinations in infected mice; type: in vivo; conditions: single dose po in SSV, mice, percent reduction in parasitemia on day three post-infection
Procedure, shortened: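 Mice (Moro SPF or NMRI, n=3 per group) infected with P. berghei ANKA received a single dose on day 1 post-infection, vehicle 0.5% CMC/0.5% benzyl alcohol/0.4% Tween 80/0.9% NaCl in water. Read-out is percent reduction in parasitemia on day 3; ED values by nonlinear fitting.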

[6] = tested on: P. falciparum; test: in vitro potency against P. falciparum (strain not stated); type: cell-based; conditions: Plasmodium falciparum
[7] = tested on: neuroblastoma cell line; test: toxicity in a neuroblastoma cell line; type: cell-based
[8] = Rane test, single 640 mg/kg doses in mice; type: in vivo

C[C@@H]1CC[C@H]2[C@@H](C)C(=O)O[C@@H]3O[C@@]4(C)CC[C@@H]1[C@]32OO4 [Artemisinin, artemisinin]
Tm, dec (DSC thermal stability) [1]: 181 °C

O=C1CCC2(CC1)OOC1(O2)C2CC3CC(C2)CC1C3 (centres unmarked) [OZ05]
IC50 [2]: 0.19 ng/mL (≈ 0.683 nM) | Activity (%) po ([3]; percent reduction in parasitemia day 3 post-infection, single 10 mg/kg po in 3% ethanol and 7% Tween 80, mice): 94% | Activity (%) sc ([3]; percent reduction in parasitemia day 3 post-infection, single 10 mg/kg sc in 3% ethanol and 7% Tween 80, mice): 99.7% | Activity (%) SSVpo ([3]; percent reduction in parasitemia day 3 post-infection, single po dose in standard suspending vehicle (SSV), mice): 74% | Survival (days) po ([3]; single 10 mg/kg po in 3% ethanol and 7% Tween 80, untreated control 5.6 ± 0.3): 7.1 days | Survival (days) sc ([3]; single 10 mg/kg sc in 3% ethanol and 7% Tween 80, untreated control 5.6 ± 0.3): 8.6 days | Survival (days) SSVpo ([3]; single po dose in SSV, untreated control 5.6 ± 0.3): 6.2 days | adult worms at day 49, per os 200 mg/kg, DEAD WORM (%) ([4]; single 200 mg/kg per os): 12% | adult worms at day 49, per os 400 mg/kg, DEAD WORM (%) ([4]; single 400 mg/kg per os): 32% | adult worms at day 49, per os 600 mg/kg, DEAD WORM (%) ([4]; single 600 mg/kg per os): 58% | ED50 ([5]; Plasmodium berghei, read-out: ED50): 8.7 mg/kg | ED90 [5]: 12 mg/kg | ED99 [5]: 15 mg/kg | IC50 [6]: 1 to 5 ng/mL (≈ 3.59 to 18 nM) | toxicity in a neuroblastoma cell line [7]: no toxicity | toxicity at single 640 mg/kg doses in mice in the Rane test [8]: no toxicity
